Test results as given in patent EP1304101A1, “Composition and method for use of pyridinium derivatives in cosmetic and therapeutic applications” (Torrent Pharmaceuticals Ltd, priority 2001, dated 2003).

Columns and labels:
AGE-BSA = target: T1, AGE-BSA (Bos taurus, UniProt P02769); test: In-vitro AGE breaking activity by ELISA (16 weeks AGE-BSA incubated with test compound); format: biochemical, bovine; conditions: for % Breakage: 37°C, 24 hours; for AGE breaking activity compared to PTB: comparison in words based on Table 2
T1 construct: Bovine serum albumin (fraction V) (BSA); from tissue
T1 sequence (P02769 25-607): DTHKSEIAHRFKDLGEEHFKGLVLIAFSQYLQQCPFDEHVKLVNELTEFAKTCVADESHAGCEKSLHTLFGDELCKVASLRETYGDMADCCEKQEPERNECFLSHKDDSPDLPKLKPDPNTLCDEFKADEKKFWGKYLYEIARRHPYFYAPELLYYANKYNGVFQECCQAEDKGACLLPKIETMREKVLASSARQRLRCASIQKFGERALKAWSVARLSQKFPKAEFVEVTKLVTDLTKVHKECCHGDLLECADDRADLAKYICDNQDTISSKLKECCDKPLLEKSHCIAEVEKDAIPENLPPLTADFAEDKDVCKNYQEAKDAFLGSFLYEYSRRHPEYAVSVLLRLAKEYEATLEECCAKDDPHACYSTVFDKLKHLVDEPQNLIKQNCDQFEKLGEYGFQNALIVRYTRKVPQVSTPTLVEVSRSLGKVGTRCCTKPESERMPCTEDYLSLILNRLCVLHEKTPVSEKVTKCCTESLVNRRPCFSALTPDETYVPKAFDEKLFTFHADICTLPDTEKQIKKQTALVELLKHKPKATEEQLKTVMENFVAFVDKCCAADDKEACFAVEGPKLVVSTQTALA
Experimental: AGE breaking activity has been confirmed by the screening procedure as mentioned below: • Materials: • Bovine serum albumin (fraction V) (BSA) • Glucose, analytical grade • Phosphate buffered saline (PBS) • Equipment: • Microplate ELISA Reader - Spectramax Plus (Molecular Devices, USA) • Microplate washer, (Bio -Tec Instruments, USA) • pH meter • Methods of experiment: Elisa (Enzyme Linked Immunosorbent Assay) 160 mg/ml of protein, bovine serum albumin, BSA and 1.6M glucose sugar were dissolved in phosphate buffered saline, PBS. Sodium azide was added at 0.02% concentration as a preservative. The solution was filtered asceptically through a 0.22 µM filter and kept for aging at 37°C for 16 weeks. After 16 weeks the solution was dialyzed against PBS, aliquoted and stored at - 20°C.
To determine the AGE breaking activity, 10 µg/ml of the 16 weeks AGE-BSA was incubated with different concentrations of the test compounds at 37°C for 24 hours and AGE breaking activity of the test compounds by ELISA was determined.
Different concentrations of 16 weeks AGE-BSA were coated on a microtitre plate as standard. Each concentration is coated in triplicates. • 2. The test samples were coated on microtitre plate at a concentration of 5 ng. to 20 ng per well in triplicates. • 3. The plate was incubated at 37°C for one hour. • 4. After incubation the plate was washed with PBST (PBS with 0.05% Tween 20). • 5. Blocking with 5% skimmed milk in PBS at 37°C for one hour was done. • 6. The plate was washed with PBST. • 7. Primary antibody against AGE-BSA was added and the plate is incubated at 37°C for one hour. • 8. The plate was washed with PBST • 9. Secondary antibody anti rabbit HRPO (Horse-Radish Per Oxidase) conjugate was added and the plate is incubated at 37°C for one hour. • 10. The plate was washed with PBST. • 11. Colour development with OPD (orthophenylenediamine dihydrochloride) and hydrogen peroxide was done. • 12. OD (optical density) at (450nm reading - 620nm reading) was measured after incubation at 37°C for 15 minutes with Microplate ELISA Reader.
The breaker activity of the compounds were determined by the following formula: % Breaker activity =(OD450-620 Control - OD450-620 Test)/(OD450-620 Control)x 100 [formula] OD450-620Control= Absorbance of 20ng AGE-BSA after incubation at 37°C for 24 hours without test compound OD450-620Test= Absorbance of 20ng AGE-BSA after incubation at 37°C for 24 hours with required concentration of test compound

Rat Tail Tendon Collagen = test: In-vivo AGE breaking: collagen solubility in rat tail tendon of STZ-diabetic rats after 8 weeks of treatment; design: species or system male wister rats; conditions: 8 weeks treatment
Excerpt: The results are mentioned in Table 3 below:
A brief summary of observation is as follows.

[1] = Free radical scavenging activity on ABTS radical cation (absorbance at 730nm); format: biochemical
Experimental: This method measures the relative ability of free radical scavenging substances to scavenge the ABTS ^.+ i.e. 2,2-Azino-bis-(3-ethyl benzo thiazoline-6-sulfonate) radical cation as compared to a standard amount of standard or free radical scavengers antioxidants. Incubation of ABTS with Peroxidase (metmyoglobin) and hydrogen peroxide results in the production of radical cation ABTS^.+ . This species is blue- green in colour and can be detected at 730nm. Antioxidants or free radical scavengers in the added sample that causes suppression of the color to a degree that is proportional to their concentration.
• A. Phosphate Citrate Buffer (pH 5.0): 48.5ml of 0.1M citric acid with sufficient 0.2M disodium hydrogen phosphate to produce 100 ml. • B. Phosphate Buffer Saline (PBS): Dissolve 40.0g of NaCl, 1.0g of KCI, 1.0g of KH2PO4 and 3.05g of Na2HPO4 in 1 litre milli-Q water. Dilute 200ml of above solution to 1 litre with milli-Q water (pH 7.4-7.6). • C. 3µM stock solution of Peroxidase was prepared in phosphate buffer saline pH 7.4(PBS). • D. 1.08 mM stock solution of Hydrogen peroxide was prepared in phosphate buffer saline pH 7.4 (PBS).
1 tablet (10mg) was dissolved in phosphate citrate buffer (pH 5.0).
5.0ml of ABTS stock solution was diluted with PBS to 20 ml.
320 µg of the enzyme was dissolved in 2.5 ml of PBS.
12µl of Hydrogen Peroxide (30%w/v) was diluted to 100ml with PBS.
0.1mM of stock solution of the drug was prepared which was serially diluted in PBS to get solutions of different concentrations.
To 18ml of ABTS stock solution, 100µl of Horseradish Peroxidase stock solution was added.
As soon as 1.5 ml of hydrogen peroxide solution was added to the above solution, blue-green colour of the ABTS radicals appeared. This solution was incubated at 30°C for 30 min.
980µl of ABTS radical stock solution was added to an eppendorf tube. To it was added 100µl of various PBS solution.
980µl of ABTS radical stock solutions were added to different eppendorf tubes. To it were added 100µl of various concentrations of drug solution.
The absorbance of control and test samples was recorded immediately at 730nm taking PBS as blank.
Calculation: The percent antioxidant activity was calculated according to the formula: % Antioxidant activity = [O.D of test sample/O.D of control*100]-100.

Maillard reaction = test: AGE inhibiting activity, Method I (BSA + ribose, fluorescence); format: biochemical; conditions: 37° C for 7 days
Experimental: The following method was used to determine the inhibitory effect of the test compound on Maillard reaction in-vitro.
Addition of compound was done in aseptic conditions. Sodium azide (0.02%) was also added in this solution in order to prevent microbial growth. A separate tube containing BSA, ribose and sodium azide in the same concentration and buffer as above, but without any test compound, was also incubated as positive control.
After incubation at 37° C for 7 days, 40 micro litre sample from each tube was removed and diluted with PBS to have final concentration of BSA at 1mg/ml. The fluorescence of all the samples was measured at Excitation Maximum of 355nM and the Emission Maximum of 460nM using f-MAX Fluorimeter (Molecular Device, USA). In order to study the effect of test compound on fluorescence, freshly prepared compound solution was mixed with previously incubated positive control (i.e. BSA + ribose), so as to achieve same concentration of all the components as that of test samples.
The percent inhibition of test compound was measured as follows: % Inhibition =(F4 - F3)/(F4)X 100 [formula] Where F3 = Fluorescence of BSA + ribose + compound,F4 is fluorescence of incubated (BSA + ribose) + freshly added test compound.

| SMILES | % Breakage (AGE-BSA; 10 mM test compound) | Relative Free Radical Scavenging Activity(%) on ABTS ([1]; 11.5µM) | Relative Free Radical Scavenging Activity(%) on ABTS ([1]; 23.0µM) | Relative Free Radical Scavenging Activity(%) on ABTS ([1]; 46.0µM) | Relative Free Radical Scavenging Activity(%) on ABTS ([1]; 92.5µM) | % Breakage (AGE-BSA; 5 mM test compound) | AGE breaking activity compared to PTB (AGE-BSA) | also measured |
| --- | --- | --- | --- | --- | --- | --- | --- | --- |
| CS(=O)(=O)NNC(=O)c1ccc[n+](CC(=O)c2cccs2)c1.[Br-] [Compound 5, 1-(2-thien-2'-yl-2-oxoethyl) -3-(methanesulfonylhydrazinocarbonyl) pyridinium bromide] | 16% | 47.2% | 65.6% | 83.7% | 100% |  |  | % Breakage (AGE-BSA; 50 mM test compound): 68%; % Improvement in collagen solubility with respect to untreated control subject. (Rat Tail Tendon Collagen; 10.0mg/kg): 88.80%; %Inhibition (Day 7) (Maillard reaction; 10mM): 70% |
| O=C(NNC(=O)c1ccc[n+](CC(=O)c2cccs2)c1)c1ccc[n+](CC(=O)c2cccs2)c1.[Br-].[Br-] [Compound 6, N, N'-bis [3-carbonyl-1-(2-thien-2'-yl-2-oxoethyl)pyridinium] hydrazine dibromide] |  |  |  |  |  | 53% | superior | % Improvement in collagen solubility with respect to untreated control subject. (Rat Tail Tendon Collagen; 7.5mg/kg): 56.70% |
| CCOC(=O)C[n+]1cccc(C(=O)NCCOC(=O)c2ccccc2)c1.[Br-] [Compound 7, 1-(2-ethoxy-2-oxoethyl) -3-(2-(benzoyloxy)ethylaminocarbonyl) pyridinium bromide] |  |  |  |  |  |  |  | % Breakage (AGE-BSA; 20 mM test compound): 36%; %Inhibition (Day 7) (Maillard reaction; 10mM): 51% |
| O=C(NNC(=O)c1ccc[n+](CC(=O)c2cccs2)c1)c1ccc[n+](CC(=O)c2cccs2)c1.[Cl-].[Cl-] [Compound 33, N, N'-bis [3-carbonyl-1-(2-thien-2'-yl-2-oxoethyl)pyridinium] hydrazine dichloride] |  | 58.4% |  |  | 100% | 20% | superior | % Improvement in collagen solubility with respect to untreated control subject. (Rat Tail Tendon Collagen; 15.0 mg/kg): 80.45%; Relative Free Radical Scavenging Activity(%) on ABTS ([1]; 23 µM): 72.8%; Relative Free Radical Scavenging Activity(%) on ABTS ([1]; 46 µM): 98.5%; %Inhibition (Day 7) (Maillard reaction; 2.5mM): 68.4% |
| O=C(C[n+]1cccc(C(=O)NNC(=O)c2ccc[n+](CC(=O)NC3CC3)c2)c1)NC1CC1 [Compound 39, N, N'-bis-[3-carbonyl-1-(2-cyclopropylamino-2-oxoethyl)pyridinium] hydrazine dichloride] |  | 43.0% | 62.8% | 95.6% | 98% | 22.8% | superior | % Improvement in collagen solubility with respect to untreated control subject. (Rat Tail Tendon Collagen; 6.0mg/kg): 28.00% |
| CCOC(=O)NNC(=O)c1ccc[n+](CC(=O)c2cccs2)c1 [Compound 54, 1-(2-thien-2'-yl-2-oxoethyl)-3-(ethoxycarbonyl hydrazinocarbonyl) pyridinium bromide] | 33.43% | 5.22% | 15.45% | 46.82% | 77.07% |  |  | %Inhibition (Day 7) (Maillard reaction; 2.5mM): 46.3% |
| Cc1ccc(C(=O)C[n+]2cccc(C(=O)NNS(C)(=O)=O)c2)s1.[Cl-] [Compound 63, 1-(2-(5-methylthien-2-yl)-2-oxoethyl)-3-(methanesulfonyl hydrazinocarbonyl) pyridinium chloride] | 25.17% | 10.75% | 47.20% | 88.64% | 99.18% |  |  | %Inhibition (Day 7) (Maillard reaction; 6.25mM): 58.15% |
| CCCCOC(=O)c1ccc[n+](CC(=O)Nc2ccccc2)c1.[Cl-] [Compound 93, 1-(2- Phenylamino-2-oxoethyl) -3-(n-butyloxycarbonyl) pyridinium chloride] | 57% | 8.5% | 8.6% | 9.6% | 11.4% |  |  | Relative Free Radical Scavenging Activity(%) on ABTS ([1]; 925µM): 25.0% |
